IC50 data for three molecules are collected here from patent publication US9333205B2, “Isoxazolo-quinazolines as modulators of protein kinase activity” (NERVIANO MEDICAL SCIENCES S.R.L., priority 2010, dated 2016).

Usually IC50 stands for the point on the concentration scale where inhibition reaches its midpoint.

Experiment [1] addresses MPS1 (Homo sapiens (Human), UniProt P33981). As to the kind of experiment: Biochemical trans-phosphorylation (Dowex, 33P-γ-ATP) assay for inhibitors of MPS1 kinase activity. As to conditions: MPS1 5 nM, 15 microM ATP, P38-βtide 200 microM. The source says:
Cloning, Expression and Purification of Recombinant MPS1 Full Length Protein.
MPS1 full length (corresponding to residues 2-857 of the full length sequence, see Swiss-Prot accession number P33981) was PCR amplified from the full-length human MPS1 gene present in house as clone pGEX4t_MPS1.
Baculoviruses were generated by cotransfecting Sf9 insect cells with the expression vector and the viral DNA using the BaculoGold® transfection kit (Pharmingen). Viral supernatant was recovered after 5 days and subjected to 3 rounds of amplification to increase viral titer. Recombinant protein was produced by infecting High5 insect cells. After 72 hours of infection at 21° C., cells were recovered, pelletted and freezed at −80° C. For purification of recombinant protein, pellet was thawed, resuspended in lysis buffer (PBS, NaCl 150 mM, Glycerol 10%, CHAPS 0.1%, DTT 20 mM, protease and phosphatase inhibitors) and lysed by Gaulin. Lysate was cleared by centrifugation and loaded on a GST affinity column. After extensive wash, recombinant protein was cleaved by a specific protease and eluted by incubation.
To get a fully activated enzyme, the protein was then subjected to auto-phosphorylation in presence of ATP 1 mM at 25° C. for 2 hours in kinase buffer (Hepes pH7.5 50 mM, MgCl2 2.5 mM, MnCl2 1 mM, DTT 1 mM, phosphatase inhibitors); ATP was then removed whit a desalting column.
(§1) Biochemical Assay for Inhibitors of MPS1 and PERK Kinase Activity
(§2) The inhibitory activity of putative kinase inhibitors and the potency of selected compounds were determined using a trans-phosphorylation assay.
Specific peptide or protein substrates are trans-phosphorylated by their specific ser-thr or tyr kinase in the presence of ATP traced with ^33P-γ-ATP, and in the presence of their own optimal buffer and cofactors. […]
Supernatant is subsequently withdrawn and transferred into a counting plate, then evaluated by β-counting. […]

For experiment [2], the target named is PERK (Homo sapiens (Human), UniProt Q9NZJ5). As to the kind of experiment: Biochemical trans-phosphorylation (Dowex, 33P-γ-ATP) assay for inhibitors of PERK kinase activity. As to conditions: PERK 8 nM, 52 microM ATP, eIF2alfa-tide 300 microM. On the procedure:
Cloning, Expression and Purification of Recombinant PERK Cytoplasmic Domain Protein.
PERK cytoplasmic domain (corresponding to residues 540-1115; Swiss-Prot accession number Q9NZJ5) was PCR amplified using the following forward oligonucleotide:
Recombinant protein was produced in BL21(DE3)pLysS strain, in auto-induction medium, at 21° C. for 24 hours (see F. W. Studier, “Protein production by auto-induction in high density shaking cultures”, Protein Expression and Purification (2005) vol. 41:207-234). The cells were recovered by centrifugation, and the pellet frozen at −80° C. For purification of recombinant protein, pellet was thawed, resuspended in lysis buffer (Tris-HCl 50 mM pH 7.6, NaCl 250 mM, Glycerol 10%, CHAPS 0.2%, Imidazole 5 mM, protease and phosphatase inhibitors) and lysed by Gaulin homogenizer. Lysate was cleared by centrifugation and loaded on a Ni-NTA and the eluate on a GST affinity column. After extensive wash, recombinant protein was cleaved by a specific protease and eluted. Recombinant PERK cytoplasmic domain obtained by this protocol was >85% pure by coomassie stained SDS-PAGE.
as §1, §2
Specific peptide or protein substrates are trans-phosphorylated by their specific ser-thr or tyr kinase in the presence of ATP traced with ^33P-γ-ATP, and in the presence of their own optimal buffer and cofactors.
At the end of the phosphorylation reaction, more than 98% unlabeled ATP and radioactive ATP is captured by an excess of the ion exchange dowex resin; the resin then settles down to the bottom of the reaction plate by gravity.
Supernatant is subsequently withdrawn and transferred into a counting plate, then evaluated by β-counting.
The buffer for PERK assay was composed of HEPES 50 mM, at pH 7.5 with 3 mM MgCl2, 1 mM DTT, 3 microM Na3VO4, and 0.2 mg/mL BSA […]

PERK, sequence (Q9NZJ5 540-1115): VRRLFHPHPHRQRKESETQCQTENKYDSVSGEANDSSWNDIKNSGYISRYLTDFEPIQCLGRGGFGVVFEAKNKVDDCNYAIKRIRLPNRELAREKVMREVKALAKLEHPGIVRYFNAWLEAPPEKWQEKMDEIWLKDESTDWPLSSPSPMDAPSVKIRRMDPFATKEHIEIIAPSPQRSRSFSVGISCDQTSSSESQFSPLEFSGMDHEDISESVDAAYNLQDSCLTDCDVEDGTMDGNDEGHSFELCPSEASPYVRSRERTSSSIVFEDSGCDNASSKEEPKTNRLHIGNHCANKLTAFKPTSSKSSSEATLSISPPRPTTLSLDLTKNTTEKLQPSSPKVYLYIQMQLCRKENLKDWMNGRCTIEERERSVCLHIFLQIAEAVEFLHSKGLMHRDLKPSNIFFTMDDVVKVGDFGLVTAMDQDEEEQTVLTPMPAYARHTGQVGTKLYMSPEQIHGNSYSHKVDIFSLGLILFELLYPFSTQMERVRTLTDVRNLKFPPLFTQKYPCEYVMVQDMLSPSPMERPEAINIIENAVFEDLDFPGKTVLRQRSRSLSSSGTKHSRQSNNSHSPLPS
MPS1, sequence (P33981 2-857): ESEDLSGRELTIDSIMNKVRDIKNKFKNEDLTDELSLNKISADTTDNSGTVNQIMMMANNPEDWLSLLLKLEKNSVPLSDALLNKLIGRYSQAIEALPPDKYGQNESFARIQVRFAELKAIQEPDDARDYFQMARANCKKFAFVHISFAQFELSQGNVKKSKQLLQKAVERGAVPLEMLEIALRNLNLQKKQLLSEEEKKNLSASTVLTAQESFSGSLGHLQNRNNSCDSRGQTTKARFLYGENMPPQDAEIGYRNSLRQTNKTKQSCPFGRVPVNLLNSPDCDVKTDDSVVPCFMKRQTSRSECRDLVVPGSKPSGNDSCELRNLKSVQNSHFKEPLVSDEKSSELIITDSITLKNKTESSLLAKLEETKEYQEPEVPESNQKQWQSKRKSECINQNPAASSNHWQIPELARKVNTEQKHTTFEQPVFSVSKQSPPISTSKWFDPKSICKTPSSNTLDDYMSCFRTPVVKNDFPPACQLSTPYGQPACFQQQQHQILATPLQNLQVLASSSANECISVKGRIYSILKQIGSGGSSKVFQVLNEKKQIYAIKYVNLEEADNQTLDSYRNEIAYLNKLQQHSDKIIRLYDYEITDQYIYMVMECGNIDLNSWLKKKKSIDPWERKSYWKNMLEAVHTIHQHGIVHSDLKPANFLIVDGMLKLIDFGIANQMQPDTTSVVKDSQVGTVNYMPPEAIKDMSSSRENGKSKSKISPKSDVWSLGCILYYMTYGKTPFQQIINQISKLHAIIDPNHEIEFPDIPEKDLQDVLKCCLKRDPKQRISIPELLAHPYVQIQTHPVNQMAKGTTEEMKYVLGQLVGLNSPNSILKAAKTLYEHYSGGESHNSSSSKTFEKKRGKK

As for `COc1cc(C(=O)NC2CCN(C)CC2)ccc1Nc1ncc2c(n1)-c1noc(C(N)=O)c1C(C)(C)C2` [Compound 30, 8-({2-methoxy-4-[(1-methylpiperidin-4-yl)carbamoyl]phenyl}amino)-4,4-dimethyl-4,5-dihydroisoxazolo[4,3-h]quinazoline-3-carboxamide], the IC50 in experiment [1] came out at 680 nM; in experiment [2], 400 nM.

Consider `COc1cc(C(=O)NC2CCN(C)CC2)ccc1Nc1ncc2c(n1)-c1onc(C(N)=O)c1CC2(C)C` [Compound 55, 8-({2-methoxy-4-[(1-methylpiperidin-4-yl)carbamoyl]phenyl}amino)-5,5-dimethyl-4,5-dihydroisoxazolo[4,5-h]quinazoline-3-carboxamide], for which the 50% inhibitory concentration (IC50) in experiment [1] is 3440 nM; in experiment [2], 510 nM.

With `COc1cc(C(=O)NC2CCN(C)CC2)ccc1Nc1ncc2c(n1)-c1onc(C(=O)N[C@@H](CN)c3ccccc3)c1CC2(C)C` [Compound 61, N-[(1R)-2-amino-1-phenylethyl]-8-({2-methoxy-4-[(1-methylpiperidin-4-yl)carbamoyl]phenyl}amino)-5,5-dimethyl-4,5-dihydroisoxazolo[4,5-h]quinazoline-3-carboxamide], the IC50 in experiment [1] worked out at 360 nM; in experiment [2], 240 nM.
